From patent US7303881B2, “Antigen delivery compositions and methods of use” (priority 2004, dated 2007)

Columns and labels:
DC 2.4 cells = assay: Expression of CD80 on DC 2.4 cells, cationic lipid head group and chain length; format: cell-based
Description: Both hydrophilic head and the lipophilic tail of the lipids have significant effect on this ability. […] The effect of the hydrocarbon tail region of the lipids on the DC cell stimulation also was systematically investigated (FIG. 8).

[1] = test system: EL4 cells pulsed with E7 peptide; assay: Chromium release CTL assay after LPD/E7 vaccination; format: in vivo, C57BL/6 mice; conditions: 20 μg E7 peptide, IV and SC, days 0 and 5
Description: For comparison, mice were injected with 20 μg E7 peptide in PBS or encapsulated in SL liposomes. Five days after the final vaccination, splenocytes were collected, and used as effector cells in a chromium release assay. Consistent with previous reports, antigen containing SL liposomes induced significant levels of CTL activity (61% specific lysis) following SC injection only.
Cytolytic lymphocyte activity was measured using standard ^51Cr-release assays. Splenocytes were collected and cultured in RPMI supplemented with 10% FBS, 50 U/ml penicillin/streptomycin, 2 mM L-glutamine, 1 mM sodium pyruvate, 2 mM nonessential amino acids, 40 U/ml IL2, and 200 ng/ml MHC class I restricted E7 peptide for 4 days. Effector cells were plated into 96-well plates at various effector-to-target (E:T) cell ratios. Targets used were either EL4 cells pulsed with E7 peptide or non-pulsed EL4 cells. Targets were labeled with 200 μCi ^51Cr (NEN Life Sciences, Boston Mass.) for 18 h at 37° C. Before mixing with effectors, the targets were washed two times with medium, and resuspended at 2×10^5 cells/ml. […] Specific lysis was calculated using the following equation: % specific lysis=(experimental release−spontaneous release)/(maximum release−spontaneous release)×100. […]

TC-1 cells = assay: Metastatic tumor model (i.p. TC-1 cells) after vaccination, survival and TC-1 rechallenge; format: in vivo, mice; conditions: 10 μg E7 peptide in PBS days 0 and 5; 1×10^6 TC-1 cells day 10
tumor = assay: In vivo tumor therapy with LPD/E7 and formulations of LPD components; parameters: species or system mice; conditions: 20 days after treatment; tumor injected 6 days before onset of treatment
Description: FIG. 9. Tumor growth kinetics on mice treated with LPD/E7 and other different formulations.
It is speculated that by condensing DNA, protamine helped to bring DNA inside the liposomes. E7 peptide was thought to bind to DNA via electrostatic interaction (Dileo et al., 2003). […] On the other hand, E7might only be loosely bound in the LD/E7 particles.

Molecule | Stimulation of CD 80 expression (DC 2.4 cells) | further results
CCCCCCCCCCCCCCCCCC(=O)OCC(C[N+](C)(C)C)OC(=O)CCCCCCCCCCCCCCCCC (stereo not drawn) [DSTAP-18:0, 1,2-distearoyl-3-trimethylammonium propane] | much lower expression of CD80 | 
CCCCCCCCCCCCCC(=O)OCC(COP(=O)(OCC)OCC[N+](C)(C)C)OC(=O)CCCCCCCCCCCCC (stereo not drawn) [DMEPC-14:0, 1,2-dimyristoyl-sn-glycero-3-ethylphosphocholine] | more potent | 
CCCCCCCCCCCCOS(=O)(=O)[O-].[Na+] [SDS, sodium dodecyl sulfate] | could not activate | 
CCCCCCCC/C=C\CCCCCCCC(=O)OC[C@@H](COP(=O)(OCC)OCC[N+](C)(C)C)OC(=O)CCCCCCC/C=C\CCCCCCCC (stereo partly drawn) [DOEPC-18:1, 1,2-dioleoyl-sn-glycero-3-ethylphosphocholine] | more potent | 
CCCCCCCCCCCC(=O)OC[C@H](COP(=O)(OCC)OCC[N+](C)(C)C)OC(=O)CCCCCCCCCCC (stereo partly drawn) [DLEPC-12:0, 1,2-dilauroyl-sn-glycero-3-ethylphosphocholine] | more potent | 
CCCCCCCCCCCCCCCC(=O)OCC(C[N+](C)(C)C)OC(=O)CCCCCCCCCCCCCCC (stereo not drawn) [DPTAP-16:0, 1,2-palmitoyl-3-trimethylammonium propane] | much lower expression of CD80 | 
E7 peptide: MHC class I restricted peptide from the HPV 16 E7 protein (aa 49 to 57, RAHYNIVTF), given in PBS |  | CTL activity [1]: no CTL induction; mice surviving beyond 20 days after TC-1 cell injection (TC-1 cells): 20%; Tumor growth after treatment (tumor): kept growing rapidly
